Key:
[1] = system: IL-17 production by CD4 T cells; assay: Human Th17 Assay (IL-17 production by CD4 T cells); format: cell-based; settings: IL-17 in supernatant after 3 days, Th17 differentiation conditions
From the text: The human Thl7 assay tests the effect of RORyt modulatory compounds on IL-17 production by CD4 T cells under conditions which favor Th17 differentiation.
Total CD4^+ T cells were isolated from the peripheral blood mononuclear cells (PBMC) of healthy donors using a CD4^+ T cell isolation kit II, following the manufacturer's instructions (Miltenyi Biotec). Cells were resuspended in a medium of RPMI-1640 supplemented with 10% fetal bovine serum, penicillin, streptomycin, […], and β-mercaptoethanol and were added to 96-well plates at 1.5x10^5 per 100 µL per well. 50 µL of compound at titrated concentrations in DMSO were added into each well at final DMSO concentration at 0.2%. Cells were incubated for 1 hour, then 50 µL of Th17 cell differentiation medium was added to each well. The final concentrations of antibodies and cytokines (R&D Systems) in differentiation medium were: 3x10^6/mL anti-CD3/CD28 beads (prepared using human T cell activation/expansion kit, Miltenyi Biotec), 10 µg/mL anti-IL4, 10 µg/mL anti-IFNγ, 10 ng/mL IL1β, 10 ng/mL IL23, 50 ng/mL IL6, 3 ng/mL TGFβ and 20 U/mL IL2. Cells were cultured at 37 °C and 5% CO2 for 3 days. Supernatants were collected and the accumulated IL-17 in culture was measured by using MULTI-SPOT® Cytokine Plate following manufacture's instruction (Meso Scale Discovery). The plate was read using Sector Imager 6000, and IL-17 concentration was extrapolated from the standard curve. The IC50s were determined by GraphPad.

[2] = molecular target: T1, human RORγt ligand binding domain (RORγt LBD) (Homo sapiens, UniProt P51449); assay: ThermoFluor® Assay (RORγt thermal shift binding); settings: 0.065 mg/mL RORγt, 60 µM 1,8-ANS, pH 7.0; estimated from concentration response curves
T1 construct: His-tag (N); TurboTEV protease cleavage site (ENLYFQG) (N); made in house; host or cells: E. coli (pHIS1, modified pET vector)
T1 sequence (P51449 258-518): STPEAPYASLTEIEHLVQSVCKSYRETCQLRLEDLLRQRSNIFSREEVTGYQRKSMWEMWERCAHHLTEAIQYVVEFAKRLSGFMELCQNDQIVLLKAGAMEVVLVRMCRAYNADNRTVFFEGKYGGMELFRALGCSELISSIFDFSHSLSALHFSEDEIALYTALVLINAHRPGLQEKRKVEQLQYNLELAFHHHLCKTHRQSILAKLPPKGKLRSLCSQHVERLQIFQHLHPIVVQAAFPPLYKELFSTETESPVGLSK
Experimental: This approach is applicable to a wide variety of systems, and rigorous in theoretical interpretation through quantitation of equilibrium binding constants (KD).
The shift in the melting point described as a ΔTm is proportional to the concentration and affinity of the ligand. The compound potency may be compared as a rank order of either ATm values at a single compound concentration or in terms of KD values, estimated from concentration response curves.
ThermoFluor® experiments were carried out using instruments owned by Janssen Research and Discovery, L.L.C. through its acquisition of 3-Dimensional Pharmaceuticals, Inc. 1,8-ANS (Invitrogen) was used as a fluorescent dye. Protein and compound solutions are dispensed into black 384-well polypropylene PCR microplates (Abgene) and overlayed with silicone oil (1 µL, Fluka, type DC 200) to prevent evaporation.
Bar-coded assay plates are robotically loaded onto a thermostatically controlled PCR-type thermal block and then heated at a typical ramp-rate of 1 °C/minute for all experiments. Fluorescence was measured by continuous illumination with UV light (Hamamatsu LC6) supplied via fiber optic and filtered through a band-pass filter (380-400 nm; >6 OD cutoff). Fluorescence emission of the entire 384-well plate was detected by measuring light intensity using a CCD camera (Sensys, Roper Scientific) filtered to detect 500 ± 25 nm, resulting in simultaneous and independent readings of all 384 wells. Images were collected at each temperature, and the sum of the pixel intensity in a given area of the assay plate was recorded versus temperature. Reference wells contained RORyt without compounds, and the assay conditions were as follows: • 0.065 mg/mL RORγt • 60 µM 1,8-ANS • 100 mM Hepes, pH 7.0 • 10 mM NaCl • 2.5 mM GSH • 0.002% Tween-20
Project compounds were arranged in a pre-dosed mother plate (Greiner Bio-one) wherein compounds are serially diluted in 100% DMSO by 1:2 from a high concentration of 10 mM over 12 columns within a series (column 12 is a reference well containing DMSO, no compound). The compounds were robotically dispensed directly into assay plates (1x = 46 nL) using a Hummingbird capillary liquid handling instrument (Digilab). Following compound dispense, protein and dye in buffer was added to achieve the final assay volume of 3 µL, followed by 1 µL of silicone oil.

[3] = molecular target: T2, human RORγt LBD (Homo sapiens, UniProt P51449); assay: RORγt (LBD) Reporter Assay (GAL4 luciferase, HEK293T cells); format: cell-based; settings: for inhibition at 6 µM: HEK-293T; for inhibition at 6 µM / RORγt (LBD) Reporter Assay, % inhibition @ 6 µM: 6 µM compound; for IC50: compounds for 24 hours
T2 construct: expressed in transfected cells; host or cells: HEK293T
T2 sequence (P51449 258-518): T1 sequence (P51449 258-518)
Experimental: Compounds were assessed for RORgt functional modulation using either the RORgt ligand binding domain (LBD) reporter assay, or the RORgt full-length (FL) reporter assay.
A reporter assay was used to test functional activity of RORγt modulatory compounds on transcriptional activation driven by the RORγt LBD. Cells used in the assay were co-transfected with two constructs. The first construct, pBIND-RORγt LBD, contained the wild type human RORγt LBD fused to the DNA binding domain of the GAL4 protein. The second construct, pGL4.31 (Promega Cat no. C935A), contained multiple GAL4 responsive DNA elements upstream of firefly luciferase. […] The mutant construct was called pBIND-RORγt-AF2.
The pBIND vector contains the GAL4 DNA Binding Domain (GAL4 DBD) and the renilla luciferase gene under control of the SV40 promoter. Renilla luciferase expression serves as a control for transfection efficiency and cell viability.
The reporter assay was performed by transiently transfecting HEK293T cells with 5 µg of pBIND-RORγt LBD or pBIND-RORγt LBD-AF2 and 5 µg pGL4.31 (Promega Cat no. C935A) using Fugene 6 (Invitrogen Cat no. E2691) at a 1:6 ratio of DNA: Fugene 6 in a T-75 flask in which cells were at least 80% confluent. Twenty four hours after bulk transfection, cells were plated into 96-well plates at 50,000 cells/well in phenol-red free DMEM containing 5% Lipid Reduced FCS and Pen/Strep. Six hours after plating, cells were treated with compounds for 24 hours. Media was removed and cells were lysed with 50 µL 1x Glo Lysis Buffer (Promega). Dual Glo Luciferase Reagent (50 µL/well) was then added and firefly luciferase luminescence was read on an Envision after a ten minute incubation. Finally, Stop and Glo reagent (50 µL/well) was added and renilla luciferase luminescence was read on an Envision after a ten minute incubation. To calculate the effect of compounds on RORγt activity, the ratio of firefly to renilla luciferase was determined and plotted against compound concentration. Agonist compounds increase RORγt-driven luciferase expression, and antagonist or inverse agonist compounds decrease luciferase expression.

| SMILES | IC50 [1] [nM] | IC50 ([1]; Homo sapiens, CD4+ T, 72 h) [nM] | Kd [2] [nM] | inhibition at 6 µM [3] [%] | IC50 [3] [nM] | RORγt (LBD) Reporter Assay, % inhibition @ 6 µM [3] [%] |
| --- | --- | --- | --- | --- | --- | --- |
| COc1nc2ccc(C(O)c3cnnn3C)cc2c(Cl)c1Cc1ccc(-n2cccn2)cc1 (single isomer, unassigned) [Example 5b, (3-(4-(1H-Pyrazol-1-yl)benzyl)-4-chloro-2-methoxyquinolin-6-yl)(1-methyl-1H-1,2,3-triazol-5-yl)methanol] | 1500 |  |  |  |  |  |
| COc1nc2ccc(C(O)c3cnnn3C)cc2c(Cl)c1Cc1ccc(-n2cccn2)cc1 (single isomer, unassigned) [Example 5c, (3-(4-(1H-Pyrazol-1-yl)benzyl)-4-chloro-2-methoxyquinolin-6-yl)(1-methyl-1H-1,2,3-triazol-5-yl)methanol] | 610 |  |  |  |  |  |
| COc1nc2ccc(C(O)c3ccc(C)nc3C)cc2c(Cl)c1Cc1ccc(C(F)(F)F)cc1 (single isomer, unassigned) [Example 14b, (4-Chloro-2-methoxy-3-(4-(trifluoromethyl)benzyl)quinolin-6-yl)(2,6-dimethylpyridin-3-yl)methanol] |  | 170 | 130 | 97 | 120 |  |
| COc1nc2ccc(C(O)c3ccc(C)nc3C)cc2c(Cl)c1Cc1ccc(C(F)(F)F)cc1 (single isomer, unassigned) [Example 14c, (4-Chloro-2-methoxy-3-(4-(trifluoromethyl)benzyl)quinolin-6-yl)(2,6-dimethylpyridin-3-yl)methanol] | 100 |  | 100 |  | 220 | 98 |
| COc1nc2ccc(C(O)c3cnnn3C)cc2c(Cl)c1Cc1ccc(C(F)(F)F)cc1 (single isomer, unassigned) [Example 17b, (4-Chloro-2-methoxy-3-(4-(trifluoromethyl)benzyl)quinolin-6-yl)(1-methyl-1H-1,2,3-triazol-5-yl)methanol] | 440 |  | 81 | 96 | 240 |  |
| COc1nc2ccc(C(O)c3cnnn3C)cc2c(Cl)c1Cc1ccc(C(F)(F)F)cc1 (single isomer, unassigned) [Example 17c, (4-Chloro-2-methoxy-3-(4-(trifluoromethyl)benzyl)quinolin-6-yl)(1-methyl-1H-1,2,3-triazol-5-yl)methanol] | 140 |  | 130 |  | 210 | 97 |
| COc1nc2ccc(C(O)c3cncn3C)cc2c(Cl)c1Cc1ccc(C(F)(F)F)cc1 (single isomer, unassigned) [Example 18c, (4-Chloro-2-methoxy-3-(4-(trifluoromethyl)benzyl)quinolin-6-yl)(1-methyl-1H-imidazol-5-yl)methanol] |  | 650 | 260 |  | 320 | 96 |
| Cc1ncc(C(O)c2ccc3nc(N4CCC4)c(Cc4ccc(-n5cccn5)cc4)c(Cl)c3c2)n1C (single isomer, unassigned) [Example 21c, {2-Azetidin-1-yl-4-chloro-3-[4-(1H-pyrazol-1-yl)benzyl]quinolin-6-yl}(1,2-dimethyl-1H-imidazol-5-yl)methanol] |  | 2600 | 190 |  | 450 | 92 |
| Cc1ncc(C(O)c2ccc3nc(N4CCC4)c(Cc4ccc(C(F)(F)F)cc4)c(Cl)c3c2)n1C (single isomer, unassigned) [Example 22b, {2-Azetidin-1-yl-4-chloro-3-[4-(trifluoromethyl)benzyl]quinolin-6-yl}(1,2-dimethyl-1H-imidazol-5-yl)methanol] | 9.4 |  | 55 | 95 | 240 |  |
| Cc1ncc(C(O)c2ccc3nc(N4CCC4)c(Cc4ccc(C(F)(F)F)cc4)c(Cl)c3c2)n1C (single isomer, unassigned) [Example 22c, {2-Azetidin-1-yl-4-chloro-3-[4-(trifluoromethyl)benzyl]quinolin-6-yl}(1,2-dimethyl-1H-imidazol-5-yl)methanol] | 2.9 |  | 43 |  | ~400 | 96 |
| Cc1ccc(C(O)c2ccc3nc(N4CCC4)c(Cc4ccc(C(F)(F)F)cc4)c(Cl)c3c2)c(C)n1 (single isomer, unassigned) [Example 23b, {2-Azetidin-1-yl-4-chloro-3-[4-(trifluoromethyl)benzyl]quinolin-6-yl}(2,6-dimethylpyridin-3-yl)methanol] |  | 380 | 110 | 98 | 220 |  |
| Cc1ccc(C(O)c2ccc3nc(N4CCC4)c(Cc4ccc(C(F)(F)F)cc4)c(Cl)c3c2)c(C)n1 (single isomer, unassigned) [Example 23c, {2-Azetidin-1-yl-4-chloro-3-[4-(trifluoromethyl)benzyl]quinolin-6-yl}(2,6-dimethylpyridin-3-yl)methanol] | 480 |  | 200 |  | 280 | 99 |
